According to patent publication US20110237560A1, “MODULATING AND/OR DETECTING ACTIVATION INDUCED DEAMINASE AND METHODS OF USE THEREOF” (priority 2010, published 2011):
Residues, ends and D or L forms follow the SMILES beside them. *: point of attachment. Cbz = O=C(OCc1ccccc1)*

What was measured:
AID mRNA = settings: breast and ovarian tissue; cited from earlier work
Hsp90 = settings: cited from earlier work
[1] = system: various cancer cell lines; settings: cited from earlier work
DT40 cells = assay: DT40 cell growth under chronic Hsp90 inhibition; assay type: cell-based, chicken; settings: chronic low doses
Experimental: The median obtained for populations treated in each condition is indicated. […] Mean+SD values for the seven populations in each condition are plotted (middle panel). […] An identical experiment to (A) was performed except that the less toxic 17-AAG was used to inhibit Hsp90. […] The effect of the two 17-AAG concentrations used on DT40 growth was monitored by calculating the total number of cells in populations originating from 10^5 cells (left panel). The data plotted is the mean+SD of triplicate cultures for each condition. […] The quantitation of AID levels (middle panel) and cell growth curves (right panel) were done as in (B).

IgVlambda region = assay: Somatic hypermutation in DT40 cells by sequencing of IgVlambda; settings: 0.1 microM
endogenous AID = assay: Endogenous AID levels by western blot in B-cell lymphoma lines (Ramos, CH12-F3, DT40); assay type: cell-based, human, mouse and chicken; settings: Ramos and DT40; 2 microM GA and 10 microM MG132
Experimental: (§1) One of two experiments is shown. […] (D) AID stabilization by Hsp90 requires protein-protein interaction. […] Dead cells were excluded by propidium iodide staining. […] One of five independent experiments is shown. […] (D) and (F) are representative of three different experiments.
(A) AID degradation following Hsp90 inhibition is distinct from nuclear AID degradation. Ramos cells stably expressing AID-GFP were treated in triplicate with DMSO (Ctrl), 2 microM GA and/or 50 ng/mL leptomycin B (LMB) and the GFP signal was monitored over time by flow cytometry. The MFI normalized to t0=100% is plotted for each treatment. Dead cells were excluded by propidium iodide staining. […] Ramos cells stably expressing AID-GFP pretreated with 100 ng/mL cycloheximide (CHX), a known protein synthesis inhibitor, for 1 h were treated and analyzed as in (A). […] The GFP signal was monitored and plotted as above. […] Immunoprecipitates were analyzed by western blot using anti-GFP and anti-ubiquitin antibodies. […] In the lower panel, the relative amount of polyubiquitinated AID was quantified by densitometry using ImageQuant™ and the relative value of three independent experiments for each Ramos, HeLa and primary mouse B cells was plotted+SD.
In cell lines stably expressing GFP-tagged AID or AID mutants, the GFP fluorescence signal was measured by flow cytometry at various time points after the indicated treatments. […]

AID-GFP = assay: Monitoring of AID stability: GFP signal (MFI) by flow cytometry in Ramos transfectants; assay type: cell-based, human; settings: for degradation of AID-GFP induced by Hsp90 inhibition, with proteasome inhibitor: stable transfectants of Ramos and DT40 cells, 10 microM MG132
Experimental: as §1
(A) AID degradation following Hsp90 inhibition is distinct from nuclear AID degradation. Ramos cells stably expressing AID-GFP were treated in triplicate with DMSO (Ctrl), 2 microM GA and/or 50 ng/mL leptomycin B (LMB) and the GFP signal was monitored over time by flow cytometry. The MFI normalized to t0=100% is plotted for each treatment. Dead cells were excluded by propidium iodide staining. One out of five identical experiments is shown. […] Ramos cells stably expressing AID-GFP pretreated with 100 ng/mL cycloheximide (CHX), a known protein synthesis inhibitor, for 1 h were treated and analyzed as in (A). One out of four identical experiments is shown. (C) Cytoplasmic destabilization of AID following Hsp90 inhibition. Analogous experiments to those in A and B were performed on Ramos cells stably expressing GFP-AID, which was previously shown to be unable to enter the nucleus (probably because the N-terminal fusion of GFP to AID masks the NLS)^28. One out of three identical experiments is shown. (D) AID degradation following Hsp90 inhibition requires the proteasome. Ramos cells stably expressing AID-GFP were treated with DMSO (Ctrl), 2 microM 17-MG and 10 microM MG132, a known specific proteasome inhibitor, as indicated. The GFP signal was monitored and plotted as above. One out of five experiments is shown. (E) Lower AID steady-state levels induced by Hsp90 inhibition can be blocked by proteasome inhibition in B cell lymphoma lines. Human and chicken B-cell lines (Ramos and DT40 respectively) were treated with 2 microM GA and 10 microM MG132 and subsequently harvested as indicated. The cells were lyzed, fractionated on SDS-PAGE and blotted. Blots were probed with anti-AID and anti-actin. One out of two experiments is shown for each cell line. (F) Hsp90 inhibition enhances AID polyubiquitination. […] Immunoprecipitates were analyzed by western blot using anti-GFP and anti-ubiquitin antibodies. […] In the lower panel, the relative amount of polyubiquitinated AID was quantified by densitometry using ImageQuant™ and the relative value of three independent experiments for each Ramos, HeLa and primary mouse B cells was plotted+SD. […]
(A) DT40 cells and (B) Hela aid−/− cells stably expressing AID-GFP were treated with the indicated combinations of DMSO (Ctrl), 2 microM GA, 50 ng/mL leptomycin B (LMB), a nuclear export inhibitor and/or 10 microM MG132, a proteasome inhibitor. The GFP signal was monitored by flow cytometry and the MFI normalized to the signal at t0 for each treatment. […]

estrogen
increase in AID mRNA production (AID mRNA): > 20 fold

O=C1OCC/C=C/CC/C=C/C(=N/OCC(=O)N2CCCCC2)Cc2c(Cl)c(O)cc(O)c21 [NXD30001]
Hsp90 binding affinity compared to 17-MG and 17-DMAG (Hsp90): enhanced | potency in inhibiting cell growth in vitro compared to 17-MG and 17-DMAG [1]: enhanced

COC1=C2C[C@@H](C)C[C@H](OC)[C@H](O)[C@@H](C)/C=C(\C)[C@H](OC(N)=O)[C@@H](OC)/C=C\C=C(/C)C(=O)NC(=CC1=O)C2=O [GA, geldanamycin]
cell growth (DT40 cells): delayed cell growth

C=CCNC1=C2C[C@@H](C)C[C@H](OC)[C@H](O)[C@@H](C)/C=C(\C)[C@H](OC(N)=O)[C@@H](OC)/C=C\C=C(/C)C(=O)NC(=CC1=O)C2=O [17-AAG, 17-(Allylamino)-17-demethoxygeldanamycin]
decrease of mutation frequency versus controls (IgVlambda region; 4 weeks): ~5 fold | mutation frequency of the IgVlambda region (IgVlambda region; 4 weeks of growth, 10-11 clones per population): 1.11×10^−3 mutations/base pair | cell growth (DT40 cells): minimal impact on cell growth

CC(C)C[C@@H](C=O)NC(=O)[C@H](CC(C)C)NC(=O)[C@H](CC(C)C)NC(=O)OCc1ccccc1 [MG132] (Cbz-Leu-Leu-Leu-aldehyde)
degradation of endogenous AID induced by Hsp90 inhibition, with proteasome inhibitor (endogenous AID): prevented the degradation of AID | degradation of AID-GFP induced by Hsp90 inhibition, with proteasome inhibitor (AID-GFP): prevented the degradation of AID

CCC(=C/[C@H](C)C/C=C/C(C)=C/[C@@H](C)C(=O)[C@@H](C)[C@H](O)[C@@H](C)C/C(C)=C/C(=O)O)/C=C/[C@@H]1OC(=O)C=C[C@@H]1C [LMB, leptomycin B]
stability of GFP-AID (unable to enter the nucleus) (AID-GFP; Ramos expressing GFP-AID): not destabilized

C[C@@H]1C[C@@H]([C@H](O)CC2CC(=O)NC(=O)C2)C(=O)[C@@H](C)C1 [CHX, cycloheximide]
decay of AID-GFP after protein synthesis inhibition (AID-GFP; Ramos, CHX alone): expected decay

CC(=O)N[C@@H](CSC(=O)[C@]1([C@@H](O)C(C)C)NC(=O)[C@H](C)[C@@H]1O)C(=O)O [lactacystin]
degradation of AID-GFP induced by Hsp90 inhibition, with proteasome inhibitor (AID-GFP): Identical results
